US9850283B2, “Macrocyclic inhibitors of the PD-1/PD-L1 and CD80(B7-1)/PD-L1 protein/protein interactions” (BRISTOL-MYERS SQUIBB COMPANY, priority 2013, dated 2017)
Starred links: 1 amine or outer side, 2 acyl side, 3 side chain; linkers in the order of their positions; H or OH if unused. Positions of bridges follow the written chain, without caps; N, C: chain ends. Non-standard residues stand in square brackets, D forms with d. Residues, ends and D or L forms follow the SMILES beside them. X3 = O=C([C@@H]1C[C@@H](Cc2ccc(F)cc2)CN1[*:1])[*:2]; X17 = O=C([C@@H]1C[C@@H](c2nn[nH]n2)CN1[*:1])[*:2]; Pro(4R-Bn) = O=C(O)[C@@H]1C[C@@H](Cc2ccccc2)CN1; Pro(trans-4-F) = O=C(O)[C@@H]1C[C@@H](F)CN1; NMeNle = CCCC[C@H](NC)C(=O)O; NMeA = CN[C@@H](C)C(=O)O; Orn = NCCC[C@H](N)C(=O)O; Dab = NCC[C@H](N)C(=O)O; Dap = NC[C@H](N)C(=O)O

Key:
[1] = target: T1, LK35.2-hPD-L1 cells / PE-labeled PD-1-Ig (Homo sapiens, UniProt Q9NZQ7); assay: LK35.2-hPD-L1 cell binding high-content screening assay; format: cell-based; settings: cell binding assay, cell line not given; cluster symbol; read-out: CBA IC50 cluster
T1 construct: expressed in transfected cells; host or cells: LK35.2 mouse B cell line
T1 sequence (Q9NZQ7 19-290): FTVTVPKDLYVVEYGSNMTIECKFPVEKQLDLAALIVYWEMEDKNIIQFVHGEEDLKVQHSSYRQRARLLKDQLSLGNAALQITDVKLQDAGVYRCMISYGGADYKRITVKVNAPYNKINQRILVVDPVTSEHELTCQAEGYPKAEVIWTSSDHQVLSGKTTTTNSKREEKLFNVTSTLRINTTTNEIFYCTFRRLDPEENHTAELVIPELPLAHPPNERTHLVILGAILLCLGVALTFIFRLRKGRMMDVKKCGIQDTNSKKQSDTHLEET
Summary of the method: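 Mouse LK35.2 B cells stably overexpressing human PD-L1 were cultured overnight in RPMI with 10% FCS, then given compound and PE-labeled human PD-1-Ig (1 nM final) for 1 h at 37 °C. After three dPBS washes, bound fluorescence was quantified by high-content imaging.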

Human PD-L1/PD-1 = target: T2, Human PD-L1/PD-1 (Homo sapiens, UniProt Q9NZQ7); assay: HTRF PD-1-Ig/PD-L1-His binding assay (human PD-L1); settings: cluster symbol; read-out: HTRF IC50 cluster
T2 construct: made in house; host or cells: HEK293T
T2 sequence (Q9NZQ7 with tags, fused parts or gaps): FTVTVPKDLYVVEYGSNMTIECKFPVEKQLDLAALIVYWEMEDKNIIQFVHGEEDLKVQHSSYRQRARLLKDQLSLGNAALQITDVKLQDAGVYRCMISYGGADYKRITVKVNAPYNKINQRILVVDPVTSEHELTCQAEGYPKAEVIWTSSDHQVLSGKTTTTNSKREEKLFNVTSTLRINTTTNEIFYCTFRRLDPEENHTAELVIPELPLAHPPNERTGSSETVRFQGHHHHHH
Summary of the method: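 Soluble PD-1-Ig binding to PD-L1-His measured by HTRF in dPBS with 0.1% BSA and 0.05% Tween-20. Detection used europium cryptate anti-Ig antibody (1 nM final) and APC anti-His antibody (20 nM final) added on top of the binding reaction.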

Compound	IC50 [1] [nM]	IC50 (Human PD-L1/PD-1) [nM]
CCCC[C@H]1C(=O)N(C)[C@@H](CCCC)C(=O)N[C@@H](CCCN)C(=O)N[C@H](C(=O)NCC(N)=O)CSCC(=O)N[C@@H](Cc2ccc(O)cc2)C(=O)N(C)[C@@H](C)C(=O)N[C@@H](CC(N)=O)C(=O)N2CCC[C@H]2C(=O)N[C@@H](CN)C(=O)N[C@@H](CC(C)C)C(=O)N2C[C@H](F)C[C@H]2C(=O)N[C@@H](Cc2c[nH]c3ccccc23)C(=O)N[C@@H](CO)C(=O)N[C@@H](Cc2c[nH]c3ccccc23)C(=O)N1C [Example 13003] ({CH2CO}-Y[NMeA]NP[Dap]L[Pro(trans-4-F)]WSW[NMeNle][NMeNle][Orn]CG-NH2; thioether N-14)	0.158 to 4.71	0.385 to 6.74
CCCC[C@H]1C(=O)N(C)[C@@H](CCCC)C(=O)N[C@@H](CCN)C(=O)N[C@H](C(=O)NCC(N)=O)CSCC(=O)N[C@@H](Cc2ccc(O)cc2)C(=O)N(C)[C@@H](C)C(=O)N[C@@H](CC(N)=O)C(=O)N2CCC[C@H]2C(=O)N[C@@H](Cc2c[nH]cn2)C(=O)N[C@@H](CCC(=O)O)C(=O)N2C[C@H](c3nn[nH]n3)C[C@H]2C(=O)N[C@@H](Cc2c[nH]c3ccccc23)C(=O)N[C@@H](CCN)C(=O)N[C@@H](Cc2c[nH]c3ccccc23)C(=O)N1C [Example 13004] ({CH2CO}-Y[NMeA]NPHE[X17]W[Dab]W[NMeNle][NMeNle][Dab]CG-NH2; thioether N-14)	0.158 to 4.71	0.385 to 6.74
CCCC[C@H]1C(=O)N(C)[C@@H](CCCC)C(=O)N[C@@H](CCN)C(=O)N[C@H](C(=O)NCC(N)=O)CSCC(=O)N[C@@H](Cc2ccc(O)cc2)C(=O)N(C)[C@@H](C)C(=O)N[C@@H](CC(N)=O)C(=O)N2CCC[C@H]2C(=O)N[C@@H](Cc2c[nH]cn2)C(=O)N[C@@H](CCC(=O)O)C(=O)N2C[C@H](Cc3ccccc3)C[C@H]2C(=O)N[C@@H](Cc2c[nH]c3ccccc23)C(=O)N[C@@H](CCN)C(=O)N[C@@H](Cc2c[nH]c3ccccc23)C(=O)N1C [Example 13007] ({CH2CO}-Y[NMeA]NPHE[Pro(4R-Bn)]W[Dab]W[NMeNle][NMeNle][Dab]CG-NH2; thioether N-14)	0.158 to 4.71	0.385 to 6.74
CCCC[C@H]1C(=O)N(C)[C@@H](CCCC)C(=O)N[C@@H](C)C(=O)N[C@H](C(=O)NCC(N)=O)CSCC(=O)N[C@@H](Cc2ccc(O)cc2)C(=O)N(C)[C@@H](C)C(=O)N[C@@H](CC(=O)O)C(=O)N2CCC[C@H]2C(=O)N[C@@H](Cc2c[nH]cn2)C(=O)N[C@@H](CCC(=O)O)C(=O)N2C[C@H](Cc3ccccc3)C[C@H]2C(=O)N[C@@H](Cc2c[nH]c3ccccc23)C(=O)N[C@@H](CCN)C(=O)N[C@@H](Cc2c[nH]c3ccccc23)C(=O)N1C [Example 13008] ({CH2CO}-Y[NMeA]DPHE[Pro(4R-Bn)]W[Dab]W[NMeNle][NMeNle]ACG-NH2; thioether N-14)	0.158 to 4.71	0.385 to 6.74
CCCC[C@H]1C(=O)N(C)[C@@H](CCCC)C(=O)N[C@@H](CCCN)C(=O)N[C@H](C(=O)NCC(N)=O)CSCC(=O)N[C@@H](Cc2ccc(O)cc2)C(=O)N(C)[C@@H](C)C(=O)N[C@@H](CC(N)=O)C(=O)N2CCC[C@H]2C(=O)N[C@@H](CN)C(=O)N[C@@H](CC(C)C)C(=O)N2C[C@H](Cc3ccc(F)cc3)C[C@H]2C(=O)N[C@@H](Cc2c[nH]c3ccccc23)C(=O)N[C@@H](CO)C(=O)N[C@@H](Cc2c[nH]c3ccccc23)C(=O)N1C [Example 13013]	0.158 to 4.71	0.385 to 6.74
CCCC[C@H]1C(=O)N(C)[C@@H](CCCC)C(=O)N[C@@H](CCC(=O)O)C(=O)N[C@H](C(=O)NCC(N)=O)CSCC(=O)N[C@@H](Cc2ccc(O)cc2)C(=O)N(C)[C@@H](C)C(=O)N[C@@H](CC(=O)O)C(=O)N2CCC[C@H]2C(=O)N[C@@H](Cc2c[nH]cn2)C(=O)N[C@@H](CCCCN)C(=O)N2C[C@H](Cc3ccc(F)cc3)C[C@H]2C(=O)N[C@@H](Cc2c[nH]c3ccccc23)C(=O)N[C@@H](CCCCN)C(=O)N[C@@H](Cc2c[nH]c3ccccc23)C(=O)N1C [Example 13014] ({CH2CO}-Y[NMeA]DPHK[X3]WKW[NMeNle][NMeNle]ECG-NH2; thioether N-14)	> 74.3	0.385 to 6.74

Other lines, results leading:

IC50 [1] [nM]	IC50 (Human PD-L1/PD-1) [nM]	Compound
0.158 to 4.71	0.385 to 6.74	CCCC[C@H]1C(=O)N(C)[C@@H](CCCC)C(=O)N[C@@H](CCN)C(=O)N[C@H](C(=O)NCC(N)=O)CSCC(=O)N[C@@H](Cc2ccc(O)cc2)C(=O)N(C)[C@@H](C)C(=O)N[C@@H](CC(N)=O)C(=O)N2CCC[C@H]2C(=O)N[C@@H](Cc2c[nH]cn2)C(=O)N[C@@H](CCC(=O)O)C(=O)N2C[C@H](F)C[C@H]2C(=O)N[C@@H](Cc2c[nH]c3ccccc23)C(=O)N[C@@H](CCN)C(=O)N[C@@H](Cc2c[nH]c3ccccc23)C(=O)N1C [Example 13001] ({CH2CO}-Y[NMeA]NPHE[Pro(trans-4-F)]W[Dab]W[NMeNle][NMeNle][Dab]CG-NH2; thioether N-14)
0.158 to 4.71	0.385 to 6.74	CCCC[C@H]1C(=O)N(C)[C@@H](CCCC)C(=O)N[C@@H](C)C(=O)N[C@H](C(=O)NCC(N)=O)CSCC(=O)N[C@@H](Cc2ccc(O)cc2)C(=O)N(C)[C@@H](C)C(=O)N[C@@H](CC(=O)O)C(=O)N2CCC[C@H]2C(=O)N[C@@H](Cc2c[nH]cn2)C(=O)N[C@@H](CCC(=O)O)C(=O)N2C[C@H](F)C[C@H]2C(=O)N[C@@H](Cc2c[nH]c3ccccc23)C(=O)N[C@@H](CCN)C(=O)N[C@@H](Cc2c[nH]c3ccccc23)C(=O)N1C [Example 13002] ({CH2CO}-Y[NMeA]DPHE[Pro(trans-4-F)]W[Dab]W[NMeNle][NMeNle]ACG-NH2; thioether N-14)
0.158 to 4.71	0.385 to 6.74	CCCC[C@H]1C(=O)N(C)[C@@H](CCCC)C(=O)N[C@@H](CCCN)C(=O)N[C@H](C(=O)NCC(N)=O)CSCC(=O)N[C@@H](Cc2ccc(O)cc2)C(=O)N(C)[C@@H](C)C(=O)N[C@@H](CC(N)=O)C(=O)N2CCC[C@H]2C(=O)N[C@@H](CN)C(=O)N[C@@H](CC(C)C)C(=O)N2C[C@H](Cc3ccccc3)C[C@H]2C(=O)N[C@@H](Cc2c[nH]c3ccccc23)C(=O)N[C@@H](CO)C(=O)N[C@@H](Cc2c[nH]c3ccccc23)C(=O)N1C [Example 13009] ({CH2CO}-Y[NMeA]NP[Dap]L[Pro(4R-Bn)]WSW[NMeNle][NMeNle][Orn]CG-NH2; thioether N-14)
0.158 to 4.71	0.385 to 6.74	CCCC[C@H]1C(=O)N(C)[C@@H](CCCC)C(=O)N[C@@H](CCC(=O)O)C(=O)N[C@H](C(=O)NCC(N)=O)CSCC(=O)N[C@@H](Cc2ccc(O)cc2)C(=O)N(C)[C@@H](C)C(=O)N[C@@H](CC(=O)O)C(=O)N2CCC[C@H]2C(=O)N[C@@H](Cc2c[nH]cn2)C(=O)N[C@@H](CCCCN)C(=O)N2C[C@H](Cc3ccccc3)C[C@H]2C(=O)N[C@@H](Cc2c[nH]c3ccccc23)C(=O)N[C@@H](CCCCN)C(=O)N[C@@H](Cc2c[nH]c3ccccc23)C(=O)N1C [Example 13010] ({CH2CO}-Y[NMeA]DPHK[Pro(4R-Bn)]WKW[NMeNle][NMeNle]ECG-NH2; thioether N-14)
0.158 to 4.71	0.385 to 6.74	CCCC[C@H]1C(=O)N(C)[C@@H](CCCC)C(=O)N[C@@H](C)C(=O)N[C@H](C(=O)NCC(N)=O)CSCC(=O)N[C@@H](Cc2ccc(O)cc2)C(=O)N(C)[C@@H](C)C(=O)N[C@@H](CC(=O)O)C(=O)N2CCC[C@H]2C(=O)N[C@@H](Cc2c[nH]cn2)C(=O)N[C@@H](CCC(=O)O)C(=O)N2C[C@H](Cc3ccc(F)cc3)C[C@H]2C(=O)N[C@@H](Cc2c[nH]c3ccccc23)C(=O)N[C@@H](CCN)C(=O)N[C@@H](Cc2c[nH]c3ccccc23)C(=O)N1C [Example 13012] ({CH2CO}-Y[NMeA]DPHE[X3]W[Dab]W[NMeNle][NMeNle]ACG-NH2; thioether N-14)
